Laboratory results: ChEMBL document CHEMBL1926581, “Cyclic ether-containing macrolactins, antimicrobial 24-membered isomeric macrolactones from a marine Bacillus sp” (2011)
Values after ≈ are worked out from the molar mass of the structure shown.

How the values were obtained:
Type in all cases: functional
[1] = system: Escherichia coli; assay: Antibacterial activity against Escherichia coli KCTC 1923 after 24 hrs by broth microdilution method; conditions: KCTC 1923, 24 h
[2] = system: Bacillus subtilis; assay: Antibacterial activity against Bacillus subtilis KCTC 1021 after 24 hrs by broth microdilution method; conditions: KCTC 1021, 24 h
[3] = system: Saccharomyces cerevisiae; assay: Antifungal activity against Saccharomyces cerevisiae KCTC 7913 after 48 hrs by broth microdilution method; conditions: KCTC 7913, 48 h

| MIC [1] [µM] | MIC [2] [µM] | MIC [3] [µM] | Compound |
| --- | --- | --- | --- |
| 0.16 (≈ 0.067 µg/mL) | 0.16 (≈ 0.067 µg/mL) | 0.16 (≈ 0.067 µg/mL) | C[C@@H]1CCC/C=C/[C@@H]2O[C@H](C[C@@H](O)C/C=C\C=C\[C@@H](O)C/C=C/C=C\C(=O)O1)[C@H]2O |
| 0.16 (≈ 0.067 µg/mL) | 0.16 (≈ 0.067 µg/mL) | 0.02 (≈ 0.00837 µg/mL) | C[C@@H]1CCC[C@@H]2O[C@H]2/C=C/[C@H](O)C[C@@H](O)C/C=C\C=C\[C@@H](O)C/C=C/C=C\C(=O)O1 |
| 0.16 (≈ 0.067 µg/mL) | 0.16 (≈ 0.067 µg/mL) | 0.16 (≈ 0.067 µg/mL) | C[C@@H]1CCC/C=C/[C@@H]2O[C@@H](C/C=C\C=C\[C@@H](O)C/C=C/C=C\C(=O)O1)C[C@@H](O)[C@H]2O |
